From the NIST ThermoML archive (doi:10.1021/je100693c)
“And” between values parts separate entries of the source, which are not always exact repeats. Equal values may be shown once.

Assays:
[1] = 101 kPa, Liquid, Vibrating tube method
[2] = xn = mol fraction of the nth substance listed; settings: 101 kPa, Liquid, Vibrating tube method
[3] = excess molar enthalpy (molar enthalpy of mixing); xn = mol fraction of the nth substance listed; settings: 101 kPa, Liquid

CCCCn1cc[n+](C)c1.F[B-](F)(F)F [1-butyl-3-methylimidazolium tetrafluoroborate]
[1]
Settings	mass density [kg/m3]
283.15 K	1213.3
293.15 K	1205.9
303.15 K	1198.6
313.15 K	1191.4
323.15 K	1184.4
333.15 K	1177.4

CCCCn1cc[n+](C)c1.F[B-](F)(F)F [1-butyl-3-methylimidazolium tetrafluoroborate] + OCC(F)(F)F
[2], x1 = 1
Settings	mass density [kg/m3]
283.15 K	1213.3
293.15 K	1205.9
303.15 K	1198.6
313.15 K	1191.4
323.15 K	1184.4
333.15 K	1177.4

CCn1cc[n+](C)c1.F[B-](F)(F)F [1-ethyl-3-methylimidazolium tetrafluoroborate]
[1]
Settings	mass density [kg/m3]
293.1 K	1284.3
303.11 K	1276.5
313.15 K	1269.2
323.14 K	1261.8
333.23 K	1254.6

CCn1cc[n+](C)c1.F[B-](F)(F)F [1-ethyl-3-methylimidazolium tetrafluoroborate] + OCC(F)(F)F
[2], x1 = 1
Settings	mass density [kg/m3]
293.1 K	1284.3
303.11 K	1276.5
313.15 K	1269.2
323.14 K	1261.8
333.23 K	1254.6

OCC(F)(F)F [2,2,2-trifluoroethanol]
[1]
Settings	mass density
283.15 K	1408.2 kg/m3
293.14 K	1389.7 kg/m3
293.15 K	1391.1 kg/m3
303.15 K	1373.8 kg/m3
303.19 K	1372.4 kg/m3
313.15 K	1356.1 kg/m3 and 1354.8 kg/m3
323.15 K	1338 kg/m3 and 1336.6 kg/m3
333.15 K	1317.8 kg/m3 and 1319.1 kg/m3

OCC(F)(F)F [2,2,2-trifluoroethanol] + CCn1cc[n+](C)c1.F[B-](F)(F)F
Settings	excess molar enthalpy [kcal/mol]	mass density [kg/m3]
[2], 293.14 K, x2 = 0	–	1389.7
[2], 293.14 K, x2 = 0.755	–	1299.6
[2], 293.15 K, x2 = 0.099	–	1373.3
[2], 293.16 K, x2 = 0.305	–	1340.6
[2], 293.17 K, x2 = 0.5164	–	1318.4
[2], 303.16 K, x2 = 0.5164	–	1308.9
[2], 303.17 K, x2 = 0.099	–	1359.1
[2], 303.17 K, x2 = 0.755	–	1291.3
[2], 303.18 K, x2 = 0.305	–	1329.4
[2], 303.19 K, x2 = 0	–	1372.4
[2], 313.15 K, x2 = 0	–	1354.8
[2], 313.15 K, x2 = 0.099	–	1344.7
[2], 313.16 K, x2 = 0.305	–	1318.4
[2], 313.16 K, x2 = 0.755	–	1282.9
[2], 313.19 K, x2 = 0.5164	–	1299.3
[2], 323.12 K, x2 = 0.099	–	1330.5
[2], 323.14 K, x2 = 0.5164	–	1290.2
[2], 323.15 K, x2 = 0	–	1336.6
[2], 323.15 K, x2 = 0.305	–	1307.3
[2], 323.2 K, x2 = 0.755	–	1274.7
[2], 333.14 K, x2 = 0.755	–	1266.8
[2], 333.15 K, x2 = 0	–	1317.8
[2], 333.15 K, x2 = 0.5164	–	1281.1
[2], 333.16 K, x2 = 0.305	–	1296.4
[2], 333.2 K, x2 = 0.099	–	1315.8
[3], 298.15 K, x2 = 0.0555	0.0929	–
[3], 298.15 K, x2 = 0.1114	0.15	–
[3], 298.15 K, x2 = 0.1904	0.256	–
[3], 298.15 K, x2 = 0.3199	0.288	–
[3], 298.15 K, x2 = 0.4137	0.273	–
[3], 298.15 K, x2 = 0.4847	0.25	–
[3], 298.15 K, x2 = 0.5852	0.208	–
[3], 298.15 K, x2 = 0.7016	0.155	–
[3], 298.15 K, x2 = 0.79	0.112	–
[3], 298.15 K, x2 = 0.9039	0.0506	–
[3], 323.15 K, x2 = 0.0555	0.0535	–
[3], 323.15 K, x2 = 0.1114	0.0933	–
[3], 323.15 K, x2 = 0.1904	0.172	–
[3], 323.15 K, x2 = 0.2477	0.181	–
[3], 323.15 K, x2 = 0.3199	0.185	–
[3], 323.15 K, x2 = 0.4137	0.171	–
[3], 323.15 K, x2 = 0.4847	0.155	–
[3], 323.15 K, x2 = 0.5852	0.126	–
[3], 323.15 K, x2 = 0.7016	0.0908	–
[3], 323.15 K, x2 = 0.79	0.0632	–
[3], 323.15 K, x2 = 0.9216	0.0233	–
